Target: T1, human somatostatin receptor subtype 5 (Homo sapiens, UniProt P35346)
T1 construct: expressed in transfected cells
Assay: cAMP assay for SST5R (inhibition of cAMP in CHO-K1 cells)
Assay type: cell-based
Details: Table A; inhibition of cAMP via human SST5 receptor; read-out: SST5 potency
Summary of the method: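 CHO-K1 cells stably expressing human SSTR5 were treated 20 min at 37 °C with compounds plus 1.6 μM NKH477 in HBSS, 0.5 mM HEPES pH 7.4, 0.1% BSA, 0.2 mM IBMX. Lysate cAMP measured by HTRF against a standard curve; EC50 from cAMP-versus-concentration plots.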

T1 sequence (P35346 whole entry): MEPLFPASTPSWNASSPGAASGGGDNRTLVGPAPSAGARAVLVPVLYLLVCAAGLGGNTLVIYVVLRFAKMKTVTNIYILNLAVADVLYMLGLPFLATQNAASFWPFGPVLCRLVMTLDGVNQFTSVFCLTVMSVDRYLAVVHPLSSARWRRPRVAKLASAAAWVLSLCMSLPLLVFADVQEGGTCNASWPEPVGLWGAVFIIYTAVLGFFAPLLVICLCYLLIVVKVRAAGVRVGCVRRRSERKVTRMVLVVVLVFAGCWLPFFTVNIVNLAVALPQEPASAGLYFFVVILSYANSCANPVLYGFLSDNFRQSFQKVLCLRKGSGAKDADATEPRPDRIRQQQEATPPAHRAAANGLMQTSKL

Row | Structure (SMILES) | EC50 [nM]
1 | Cc1cccc2[nH]c(-c3cncc(C(=O)Nc4ccccc4)c3N3CC[C@](C)(N)C3)nc12 [2-6, 4-[(3S)-3-amino-3-methylpyrrolidin-1-yl]-5-(4-methyl-1H-1,3-benzodiazol-2-yl)-N-phenylpyridine-3-carboxamide] | < 10
2 | COCCNC(=O)c1cncc(-c2nc3c(C)cccc3[nH]2)c1N1CC[C@](C)(N)C1 [2-8, 4-[(3S)-3-amino-3-methylpyrrolidin-1-yl]-N-(2-methoxyethyl)-5-(4-methyl-1H-1,3-benzodiazol-2-yl)pyridine-3-carboxamide] | 10 to 100
3 | Cc1cccc2[nH]c(-c3cncc(C(=O)NCC4CC4)c3N3CC[C@](C)(N)C3)nc12 [2-13, 4-[(3S)-3-amino-3-methylpyrrolidin-1-yl]-N-(cyclopropylmethyl)-5-(4-methyl-1H-1,3-benzodiazol-2-yl)pyridine-3-carboxamide] | < 10
4 | Cc1cccc2[nH]c(-c3cncc(C(=O)N(C)C4CCCC4)c3N3CC[C@](C)(N)C3)nc12 [2-16, 4-[(3S)-3-amino-3-methylpyrrolidin-1-yl]-N-cyclopentyl-N-methyl-5-(4-methyl-1H-1,3-benzodiazol-2-yl)pyridine-3-carboxamide] | < 10
5 | Cc1cccc2[nH]c(-c3cncc(C(=O)NC4CCC(F)(F)CC4)c3N3CC[C@](C)(N)C3)nc12 [2-17, 4-[(3S)-3-amino-3-methylpyrrolidin-1-yl]-N-(4,4-difluorocyclohexyl)-5-(4-methyl-1H-1,3-benzodiazol-2-yl)pyridine-3-carboxamide] | 10 to 100
6 | Cc1cccc2[nH]c(-c3cncc(C(=O)N4CCC(C)(C)C4)c3N3CC[C@](C)(N)C3)nc12 [2-19, (3S)-1-[3-(3,3-dimethylpyrrolidine-1-carbonyl)-5-(4-methyl-1H-1,3-benzodiazol-2-yl)pyridin-4-yl]-3-methylpyrrolidin-3-amine] | < 10
7 | Cc1cccc2[nH]c(-c3cncc(C(=O)N4CCCC4(C)C)c3N3CC[C@](C)(N)C3)nc12 [2-20, (3S)-1-[3-(2,2-dimethylpyrrolidine-1-carbonyl)-5-(4-methyl-1H-1,3-benzodiazol-2-yl)pyridin-4-yl]-3-methylpyrrolidin-3-amine] | < 10
8 | Cc1cccc2[nH]c(-c3cncc(C(=O)N4CC(C)(C)C4)c3N3CC[C@](C)(N)C3)nc12 [2-21, (3S)-1-[3-(3,3-dimethylazetidine-1-carbonyl)-5-(4-methyl-1H-1,3-benzodiazol-2-yl)pyridin-4-yl]-3-methylpyrrolidin-3-amine] | 10 to 100
9 | Cc1cccc2[nH]c(-c3cncc(C(=O)N(C)C4CC4)c3N3CC[C@](C)(N)C3)nc12 [2-22, 4-[(3S)-3-amino-3-methylpyrrolidin-1-yl]-N-cyclopropyl-N-methyl-5-(4-methyl-1H-1,3-benzodiazol-2-yl)pyridine-3-carboxamide] | 10 to 100
10 | Cc1cccc2[nH]c(-c3cncc(C(=O)N(C)CC4CC4)c3N3CC[C@](C)(N)C3)nc12 [2-23, 4-[(3S)-3-amino-3-methylpyrrolidin-1-yl]-N-(cyclopropylmethyl)-N-methyl-5-(4-methyl-1H-1,3-benzodiazol-2-yl)pyridine-3-carboxamide] | 10 to 100
11 | Cc1cccc2[nH]c(-c3cncc(C(=O)N4CCC(F)(F)C4)c3N3CC[C@](C)(N)C3)nc12 [2-25, (3S)-1-[3-(3,3-difluoropyrrolidine-1-carbonyl)-5-(4-methyl-1H-1,3-benzodiazol-2-yl)pyridin-4-yl]-3-methylpyrrolidin-3-amine] | 10 to 100
12 | Cc1cccc2[nH]c(-c3cncc(C(=O)N4CCC(C(C)(C)C)C4)c3N3CC[C@](C)(N)C3)nc12 (stereo partly drawn) [2-27, (3S)-1-[3-(3-tert-butylpyrrolidine-1-carbonyl)-5-(4-methyl-1H-1,3-benzodiazol-2-yl)pyridin-4-yl]-3-methylpyrrolidin-3-amine] | < 10
13 | Cc1cccc2[nH]c(-c3cncc(C(=O)N4C[C@@H](C)O[C@@H](C)C4)c3N3CC[C@](C)(N)C3)nc12 [2-28, (3S)-1-{3-[(2R,6S)-2,6-dimethylmorpholine-4-carbonyl]-5-(4-methyl-1H-1,3-benzodiazol-2-yl)pyridin-4-yl}-3-methylpyrrolidin-3-amine] | 10 to 100
14 | Cc1cccc2[nH]c(-c3cncc(C(=O)NCC4CCC4)c3N3CC[C@](C)(N)C3)nc12 [2-31, 4-[(3S)-3-amino-3-methylpyrrolidin-1-yl]-N-(cyclobutylmethyl)-5-(4-methyl-1H-1,3-benzodiazol-2-yl)pyridine-3-carboxamide] | < 10
15 | Cc1cccc2[nH]c(-c3cncc(C(=O)NC45CCC(CC4)C5)c3N3CC[C@](C)(N)C3)nc12 [2-33, 4-[(3S)-3-amino-3-methylpyrrolidin-1-yl]-N-{bicyclo[2.2.1]heptan-1-yl}-5-(4-methyl-1H-1,3-benzodiazol-2-yl)pyridine-3-carboxamide] | < 10
16 | Cc1cccc2[nH]c(-c3cncc(C(=O)N4CCc5ccccc54)c3N3CC[C@](C)(N)C3)nc12 [2-34, (3S)-1-[3-(2,3-dihydro-1H-indole-1-carbonyl)-5-(4-methyl-1H-1,3-benzodiazol-2-yl)pyridin-4-yl]-3-methylpyrrolidin-3-amine] | 10 to 100

Further lines, results first:

Row | EC50 [nM] | Structure (SMILES)
17 | 100 to 1000 | Cc1cccc2[nH]c(-c3cncc(C(=O)NCCO)c3N3CC[C@](C)(N)C3)nc12 [2-9, 4-[(3S)-3-amino-3-methylpyrrolidin-1-yl]-N-(2-hydroxyethyl)-5-(4-methyl-1H-1,3-benzodiazol-2-yl)pyridine-3-carboxamide]
18 | < 10 | Cc1cccc2[nH]c(-c3cncc(C(=O)N(C)CC(F)(F)F)c3N3CC[C@](C)(N)C3)nc12 [2-10, 4-[(3S)-3-amino-3-methylpyrrolidin-1-yl]-N-methyl-5-(4-methyl-1H-1,3-benzodiazol-2-yl)-N-(2,2,2-trifluoroethyl)pyridine-3-carboxamide]
19 | 10 to 100 | Cc1cccc2[nH]c(-c3cncc(C(=O)NC4CC4)c3N3CC[C@](C)(N)C3)nc12 [2-12, 4-[(3S)-3-amino-3-methylpyrrolidin-1-yl]-N-cyclopropyl-5-(4-methyl-1H-1,3-benzodiazol-2-yl)pyridine-3-carboxamide]
20 | < 10 | Cc1cccc2[nH]c(-c3cncc(C(=O)NC(C)C4CC4)c3N3CC[C@](C)(N)C3)nc12 (stereo partly drawn) [2-14, 4-[(3S)-3-amino-3-methylpyrrolidin-1-yl]-N-(1-cyclopropylethyl)-5-(4-methyl-1H-1,3-benzodiazol-2-yl)pyridine-3-carboxamide]
21 | < 10 | Cc1cccc2[nH]c(-c3cncc(C(=O)N[C@H](C)C(F)(F)F)c3N3CC[C@](C)(N)C3)nc12 [2-18, 4-[(3S)-3-amino-3-methylpyrrolidin-1-yl]-5-(4-methyl-1H-1,3-benzodiazol-2-yl)-N-[(2R)-1,1,1-trifluoropropan-2-yl]pyridine-3-carboxamide]
22 | < 10 | C[C@H](NC(=O)c1cncc(-c2nc3c(F)cccc3[nH]2)c1N1CC[C@](C)(N)C1)C(F)(F)F [2-24, 4-[(3S)-3-amino-3-methylpyrrolidin-1-yl]-5-(4-fluoro-1H-1,3-benzodiazol-2-yl)-N-[(2S)-1,1,1-trifluoropropan-2-yl]pyridine-3-carboxamide]
23 | < 10 | Cc1cccc2[nH]c(-c3cncc(C(=O)NC(C)CC(F)(F)F)c3N3CC[C@](C)(N)C3)nc12 (stereo partly drawn) [2-32, 4-[(3S)-3-amino-3-methylpyrrolidin-1-yl]-5-(4-methyl-1H-1,3-benzodiazol-2-yl)-N-(4,4,4-trifluorobutan-2-yl)pyridine-3-carboxamide]

Reference: US12600709B2, “Nonpeptide somatostatin type 5 receptor agonists and uses thereof” (Crinetics Pharmaceuticals, Inc., priority 2019, dated 2026)
